According to patent publication US8822494B2 (Pfizer Inc., priority 2012, dated 2014):
Counter-ions that a name gives are not always drawn. Like-named read-outs stand apart in the source and are kept apart here.

Assays:
[1] = target: T1, Human D1 (Homo sapiens (Human), UniProt P21728); assay: D1 cAMP HTRF Assay; format: cell-based; settings: HEK293T/hD1#1 stable cell line, 30 min at room temperature, footnote a = geometric mean of ≧7 determinations
Text: This assay was used to determine the ability of a test compound to agonize (including partially agonize) D1. A Mab anti-cAMP labeled Cryptate visualizes the tracer. […] The signal, therefore, is inversely proportional to the concentration of cAMP in the sample.
The cAMP Dynamic kit was obtained from Cisbio International (Cisbio 62AM4PEJ). Multidrop Combi (Thermo Scientific) was used for assay additions. An EnVision (PerkinElmer) reader was used to read HTRF.
A HEK293T/hD1#1 stable cell line was constructed internally (Pfizer Ann Arbor).
Media was removed and cell pellet was re-suspended in PBS/[…] generating 2e5 cells/mL. […] Working solutions of cAMP-D2 and anti-cAMP-cryptate were prepared according to Cisbio instructions. […] The assay plate was incubated for 1 hour at room temperature. The assay plate was read on an EnVision plate reader using Cisbio recommended settings.
Data analysis was done using computer software. Percent effects were calculated from the compound controls. Ratio EC50 was determined using the raw ratio data from the EnVision reader. The cAMP standard curve was used in an analysis program to determine cAMP concentrations from raw ratio data. cAMP EC50 was determined using the calculated cAMP data.

[2] = target: T1, Human D1; assay: Human D1 Receptor Binding Assay ([3H]-SCH23390 competition); settings: read-out: Human D1 Receptor Binding, Ki (μM); Geometric mean of 2-3 determinations; over-expressing LTK human cell lines, 0.5 nM [3H]-SCH23390, 30 min at 37° C.; footnote b = single determination, c = geometric mean of ≧4 determinations
Protocol: D1 binding assays were performed using over-expressing LTK human cell lines. […] These ligand and tissue concentrations were used in time course studies to determine linearity and equilibrium conditions for binding. […] The pellet was resuspended in assay buffer [50 mM Tris (pH 7.4@ RT) containing 4 mM MgSO4 and 0.5 mM EDTA]. […] Non-specific binding was determined by radioligand binding in the presence of a saturating concentration of (+)-Butaclamol (10 μM), a D1 antagonist. After a 30 minute incubation period at 37° C., assay samples were rapidly filtered through Unifilter-96 GF/B PEI-coated filter plates and rinsed with 50 mM Tris buffer (pH 7.4 at 4° C.). […] Ki values were calculated according to the Cheng-Prusoff equation: […]

T1 sequence (P21728 whole entry): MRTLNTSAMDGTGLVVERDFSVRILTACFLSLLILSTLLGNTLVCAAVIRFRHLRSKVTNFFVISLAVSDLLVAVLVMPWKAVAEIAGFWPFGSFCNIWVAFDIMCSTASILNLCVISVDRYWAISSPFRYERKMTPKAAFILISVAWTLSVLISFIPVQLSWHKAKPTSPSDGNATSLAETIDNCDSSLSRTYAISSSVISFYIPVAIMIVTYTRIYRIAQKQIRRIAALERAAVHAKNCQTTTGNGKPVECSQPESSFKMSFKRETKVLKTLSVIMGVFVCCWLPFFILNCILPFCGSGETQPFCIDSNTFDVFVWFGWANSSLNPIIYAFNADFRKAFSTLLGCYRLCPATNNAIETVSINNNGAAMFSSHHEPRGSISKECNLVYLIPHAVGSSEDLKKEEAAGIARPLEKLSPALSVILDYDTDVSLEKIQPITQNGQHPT

For `Cc1ncnc(C)c1-c1ccc(Oc2nccc3[nH]ccc23)cc1F` [Example 1, 4-[4-(4,6-dimethylpyrimidin-5-yl)-3-fluorophenoxy]-1H-pyrrolo[3,2-c]pyridine], the EC50 [1] was 0.176 µM and the Ki [2] was 0.0303 µM.

`Cc1cc(Oc2nccc3n[nH]cc23)ccc1-c1c(C)n[nH]c(=O)c1C` (single isomer, unassigned) [Example 4, (−)-4,6-dimethyl-5-[2-methyl-4-(1H-pyrazolo[4,3-c]pyridin-4-yloxy)phenyl]pyridazin-3(2H)-one] was tested, and the EC50 [1] was 0.0105 µM and the Ki [2] was 0.0104 µM.

With `Cc1cc(Oc2nccc3[nH]ncc23)ccc1-n1c(C)nc2cnccc21` [Example 30, 4-[3-methyl-4-(2-methyl-1H-imidazo[4,5-c]pyridin-1-yl)phenoxy]-1H-pyrazolo[4,3-c]pyridine] the EC50 [1] was 2.76 µM and the Ki [2] was 0.268 µM.

`Cc1ncnc(C)c1-c1cc(F)c(Oc2nccc3[nH]ccc23)cc1F` [Example 22, 4-[4-(4,6-dimethylpyrimidin-5-yl)-2,5-difluorophenoxy]-1H-pyrrolo[3,2-c]pyridine] was tested, and the EC50 [1] was 0.538 µM and the Ki [2] was 0.0548 µM.

With `Cc1ncnc(C)c1-c1ccc(Oc2nccc3[nH]ncc23)cc1Cl` [Example 37, 4-[3-chloro-4-(4,6-dimethylpyrimidin-5-yl)phenoxy]-1H-pyrazolo[4,3-c]pyridine] the EC50 [1] was 0.248 µM and the Ki [2] was 0.0523 µM.

For `Cc1cc(Oc2nccc3n[nH]cc23)ccc1-c1c(C)c(=O)[nH]c(=O)n1C` (single isomer, unassigned) [Example 8, (−)-1,5-dimethyl-6-[2-methyl-4-(1H-pyrazolo[4,3-c]pyridin-4-yloxy)phenyl]pyrimidine-2,4(1H,3H)-dione], the EC50 [1] was < 0.00222 µM and the Ki [2] was 0.00183 µM.

`Cc1cc(Oc2nccc3[nH]ccc23)ccc1-c1c(C)ncnc1C` [Example 5, 4-[4-(4,6-dimethylpyrimidin-5-yl)-3-methylphenoxy]-1H-pyrrolo[3,2-c]pyridine] gave an EC50 [1] of 0.146 µM and a Ki [2] of 0.013 µM.

`Cc1cc(Oc2nccc3n[nH]cc23)ccc1-c1c(C)ncc(=O)n1C` (single isomer, unassigned) [Example 40, (+)-1,5-dimethyl-6-[2-methyl-4-(1H-pyrazolo[4,3-c]pyridin-4-yloxy)phenyl]pyrazin-2(1H)-one] was tested, and the EC50 [1] was 0.674 µM and the Ki [2] was 0.0281 µM.

With `Cc1ncnc(C#N)c1-c1ccc(Oc2nccc3[nH]ncc23)cc1F` [Example 35, 5-[2-fluoro-4-(1H-pyrazolo[4,3-c]pyridin-4-yloxy)phenyl]-6-methylpyrimidine-4-carbonitrile] the EC50 [1] was 1.34 µM and the Ki [2] was 0.0696 µM.

For `Cc1cc(Oc2nccc3[nH]ccc23)ccc1-c1c(C)cnnc1C` (single isomer, unassigned; ent-1) [Example 11, 4-[4-(3,5-dimethylpyridazin-4-yl)-3-methylphenoxy]-1H-pyrrolo[3,2-c]pyridine, ENT-1], the EC50 ([1]; read-out: Human D1 cAMP HTRF, EC50 (μM), Geometric mean of 2-6 determinations) was 0.117 µM and the Ki [2] was 0.0141 µM.

`Cc1cc(Oc2nccc3[nH]ncc23)ccc1-c1cn[nH]c(=O)c1C` [Example 42, 4-methyl-5-[2-methyl-4-(1H-pyrazolo[4,3-c]pyridin-4-yloxy)phenyl]pyridazin-3(2H)-one, trifluoroacetate salt] gave an EC50 [1] of 0.34 µM and a Ki [2] of 0.123 µM.

Compound `Cc1n[nH]c(=O)c(C)c1-c1ccc(Oc2nccc3[nH]ccc23)cc1` [Example 7, 4,6-dimethyl-5-[4-(1H-pyrrolo[3,2-c]pyridin-4-yloxy)phenyl]pyridazin-3(2H)-one] has an EC50 [1] of 0.0192 µM and a Ki [2] of 0.00412 µM.

`Cc1cc2[nH]ncc2c(Oc2ccc(-c3c(C)n[nH]c(=O)c3C)cc2)n1` [Example 46, 4,6-dimethyl-5-{4-[(6-methyl-1H-pyrazolo[4,3-c]pyridin-4-yl)oxy]phenyl}pyridazin-3(2H)-one] showed an EC50 [1] of 0.0891 µM and a Ki [2] of 0.0247 µM.

Compound `Cc1cc(Oc2nccc3[nH]ccc23)ccc1-c1c(C)cnn1C` [Example 2, 4-[4-(1,4-dimethyl-1H-pyrazol-5-yl)-3-methylphenoxy]-1H-pyrrolo[3,2-c]pyridine] has an EC50 [1] of 0.355 µM and a Ki [2] of 0.0348 µM.

Work on `Cc1n[nH]c(=O)c(C)c1-c1ccc(Oc2nccc3[nH]ncc23)cc1` [Example 41, 4,6-dimethyl-5-[4-(1H-pyrazolo[4,3-c]pyridin-4-yloxy)phenyl]pyridazin-3(2H)-one] yielded an EC50 [1] of 0.127 µM and a Ki [2] of 0.0409 µM.
